Where no end group is shown, it is not given here.
Legend:
NK92 cells [1] = assay: Fratricide inhibition of NK cells; type: cell-based; conditions: NK92 target cells pretreated with 20 μM peptide or 5 μM SB431542 plus 10 ng/ml TGF-β; fresh NK92 (20:1) or primary NK (10:1) effector cells; 4 hours
Procedure: To this end, 1×10^6 cells/ml of the NK92 cells cultured in the same manner as Example [2-1] were cultured for 1 hour at 37° C. with a culture medium added with 5 μl of calcein-AM (Invitrogen) and stained, and then centrifuged at 1000 rpm for 5 minutes and washed to be prepared as ‘target cells.’ As described above, the target cells stained with calcein-AM were dispensed in a 96-well plate, respectively, and treated with untreated (fresh) NK92 cells or primary NK cells as effector cells at the ratio of 20:1 or 10:1 in the same manner as Example [2-3], and cultured at 37° C. for 4 hours. The culture medium cultured above was centrifuged at 100 rcf for 5 minutes to separate the supernatant, and 100 μl each was dispensed into a 96-well black plate, and then ELISA assay (Fluorescence 480 nm/530 nm, SpectraMax i3x Molecular Device) was performed.

[2] = tested on: H460 lung cancer cell line; assay: Recovery of sensitivity of NK cells to cancer cells decreased by TGF-β; type: cell-based; conditions: H460 target cells pretreated with 20 μM peptide or 5 μM SB431542 plus 10 ng/ml TGF-β; fresh NK92 effector cells, E:T 20:1; 4 hours
Procedure: To this end, first, 1×10^5 cells/ml of a H460 lung cancer cell line was added with 20 μM the peptide of Example [1-5] or 5 μM a TGF-β signal inhibitor SB431542, respectively, cultured at 37° C. for 2 hours, and then added with 10 ng/ml of TGF-β, and cultured again for 24 hours under the same conditions, respectively. Then, the cells were added with 20 μM the peptide of Example [1-5] or 5 μM SB431542, cultured at 37° C. for 2 hours, and then added with 10 ng/ml of TGF-β, and cultured under the same conditions for 24 hours, respectively. 1×10^6 cells/ml of the H460 cells cultured above were cultured for 1 hour at 37° C. with a culture medium added with 5 μl of calcein-AM (Invitrogen) and stained, and then centrifuged at 1000 rpm for 5 minutes and washed to be prepared as ‘target cells.’
(§1) As described above, the target cells stained with calcein-AM were dispensed in a 96-well plate, respectively, and treated with untreated (fresh) NK92 cells as effector cells at an E:T ratio of 20:1, and cultured at 37° C. for 4 hours. The culture medium cultured above was centrifuged at 100 rcf for 5 minutes to separate the supernatant, and 100 μl each was dispensed into a 96-well black plate, and then ELISA assay (Fluorescence 480 nm/530 nm, SpectraMax i3x Molecular Device) was performed.

NK92 cells [3] = assay: Recovery of cytotoxicity of NK92 cells decreased by TGF-β (calcein-AM release); type: cell-based; conditions: effector NK92 cells pretreated with 20 μM peptide or 5 μM SB431542 plus 10 ng/ml TGF-β; target cells H460, H3122, K562; E:T 20:1; 4 hours
Procedure: NK92 cells were cultured in a 37° C. CO2 incubator (water jacketed incubator, Thermo electron corporation) supplied with 5% CO2 by adding an α-MEM (Welgene) culture medium added with 12.5% fetal bovine serum (FBS, Corning, united states origin, 35-015-CV) and 12.5% horse serum (Gibco) according to ATCC culture conditions with 0.2 mM myo-inositol, 0.1 mM 2-mercaptoethanol, 0.02 mM folic acid, 1% antibiotics-antimycotic (Gibco) and IL-2 cytokine (Peprotech) at a concentration of 20 ng/ml to be used as a culture medium.
The cells were cultured in about 20 to 30 ml in a T-75 flask (Thermo) at a concentration of 1×10^5 cells/ml, and centrifuged at 1000 rpm for 5 minutes every 2 to 3 days using a centrifuge (Beckman Coulter) to remove the supernatant, and then the culture medium was replaced. […]
as §1, with “The” for “As described above, the”, “calcein-AM in Example [2-2]” for “calcein-AM”, “the” for “untreated (fresh) NK92 cells as”, “prepared in Example [2-1]. […]” for “at an E:T ratio of 20:1, and cultured at 37° C. for 4 hours.”

primary NK cells = assay: Recovery of cytotoxicity of primary NK cells decreased by TGF-β (calcein-AM release); type: cell-based, human; conditions: effector primary NK cells pretreated with 20 μM peptide plus 10 ng/ml TGF-β; target cells H460, H3122, K562; E:T 10:1; 4 hours
Procedure: 2 μl of Rosettesep Human CD3 depletion cocktail (STEMCELL technologies, catalog #15621) per 1 ml of blood was added to umbilical cord blood (IRB approval number P01-201610-31-002) donated from the hospital and reacted for 20 minutes. […] At this time, it could be noted that the blood and the Ficoll layer were not mixed. To separate the cell layer from the blood, red blood cells and CD3 cells were isolated and discharged from the blood by centrifugation under conditions of 2000 rpm and Decel 0 for 25 minutes using a centrifuge (Beckman Coulter). The CD3-isolated cells reacted with 10 ml of an ACK buffer for 10 minutes to remove remaining red blood cells, and then washed twice using phosphate-buffered saline (PBS) added with 2% FBS. The washing was performed by centrifuging at 1500 rpm for 5 minutes using a centrifuge (Beckman Coulter) to remove the supernatant. The cells obtained above were used to be cultured as NK cells.
The NK cells were cultured by adding alpha-MEM (Welgene) added with 10% FBS (Corning, United States origin, 35-015-CV) with 10 ng/ml IL-15 (Peprotech), 10 ng/ml IL-21 (Peprotech), […] hydrocortisone (Peprotech) and 1% antibiotics-antimycotic (Gibco). […]

Row | Compound | fratricide activity of the NK cells (NK92 cells [1]) | cytotoxicity of the NK cells for treated H460 cells [2] | cytotoxicity of NK92 cells (NK92 cells [3]) | cytotoxicity of primary NK cells (primary NK cells)
1 | NC(=O)c1ccc(-c2nc(-c3ccc4c(c3)OCO4)c(-c3ccccn3)[nH]2)cc1 [SB431542] | significantly reduced | recovered again | recovered | –
2 | GSKKVILDLPLVI [peptide of Example [1-5]] | – | recovered again | recovered | equally confirmed
